Legend:
ALAS1 target site = experiment: Base editing in liver by LNP carrying adenine base editor mRNA and sgRNA, targeted deep sequencing; type: in vivo; conditions: Balb/C mice, tail vein, 0.15 mg/kg total RNA (ABE mRNA:sgRNA 1:1), four to six days post-dose
Description: Exemplary LNP preparations were selected to determine each preparation's ability to perform base editing in a Balb/C mouse model as described herein.
Lipid nanoparticle components were dissolved in 100% ethanol at specified lipid component molar ratios. mRNA encoding an adenine base editor and a chemically-modified sgRNA was dissolved at a mass ratio of 1:1 in 50 mM citrate, pH 4.0, resulting in a concentration of NA cargo of approximately 0.1 mg/mL.
LNP preparations were formulated with molar ratios of 47.5% Ionizable Lipid:40% Cholesterol:2.5% PEG2000-DMG:10% DSPC total lipid to NA mass ratio of 6 to 12. […]
A 3:1 ratio of aqueous to organic solvent was maintained during mixing using differential flow rates. […] After this initial dialysis, each individual LNP preparation was characterized via dynamic light scattering (DLS) to measure size and polydispersity. pKa of a subpopulation of LNP preparations was measured via TNS assay. […]
Age-matched mice were also used to administer vehicle (1×TBS) via tail vein injection as a control. […] Base editing is determined by performing targeted deep sequencing analysis at the ALAS1 target site using extracted genomic DNA. […] Library size and concentration was confirmed by Fragment Analyzer (Agilent) and analyzed for […] using an Illumina HiSeq.

[1] = RNA encapsulation efficiency of LNPs by Ribogreen assay; type: physicochemical; conditions: LNP of 47.5% Ionizable Lipid:40% cholesterol:2.5% PEG-2000 DMG:10% DPSC, N/P ratio 4-8
Description: (§1) LNPs were prepared with 47.5% Ionizable Lipid (e.g., a compound provided herein):40% cholesterol:2.5% PEG-2000 DMG:10% DPSC and an N/P ratio range of 4-8. LNPs were formed by microfluidic mixing of the lipid and NA solutions using a Precision Nanosystems NanoAssemblr Spark or Benchtop series Instruments, according to the manufacturer's protocol. A ratio of aqueous to organic solvent of approximately 2:1 or 3:1 was maintained during mixing using differential flow rates. After mixing, LNPs were collected, diluted in phosphate buffer saline (PBS) or Tris-buffered saline (TBS) (approximately 1:1 v/v). Further buffer exchange was conducted using dialysis in PBS or TBS at 4° C. for 4 to 24 hours against a 20 kDa filter. After this initial dialysis, each individual LNP preparation was characterized via dynamic light scattering (DLS) to measure the size (e.g., diameter) and polydispersity. LNPs falling within specific diameter and polydispersity ranges were pooled, and further dialyzed against PBS or TBS at 4° C. for 1 to 4 hours against a 100 kDa dialysis cassette. After the second dialysis, LNPs were sterile filtered using 0.22 μm filter and stored at 4° C. for further use.
RNA concentration and encapsulation efficiency were determined by Ribogreen assay (BioTek Synergy LX plate reader).

[2] = LNP hydrodynamic diameter and polydispersity index by dynamic light scattering (DLS); type: physicochemical; conditions: LNP of 47.5% Ionizable Lipid:40% cholesterol:2.5% PEG-2000 DMG:10% DPSC, N/P ratio 4-8
Description: as §1
LNP hydrodynamic diameter and polydispersity index (PDI) were measured using high throughput dynamic light scattering (DLS) (Stunner, Unchained Labs). LNPs were diluted 1×TBS or PBS to an appropriate concentration and analyzed.

| Compound | base editing observed in liver (ALAS1 target site) [%] | Mean Encapsulation Efficiency (%) [1] [%] | Mean Diameter (nm) [2] [nm] | Mean PDI [2] |
| --- | --- | --- | --- | --- |
| CC/C=C\CCCCOC(CCC(=O)OCCCC(CCCOC(=O)CCCCCCC/C=C\C/C=C\CCCCC)OC(=O)OCC1CCCN(CC)C1)OCCCC/C=C\CC (centres unmarked) [Example 7-21, 7-((4,4-bis(((Z)-oct-5-en-1-yl)oxy)butanoyl)oxy)-4-((((1-ethylpiperidin-3-yl)methoxy)carbonyl)oxy)heptyl (9Z,12Z)-octadeca-9,12-dienoate] | 34.1 | 86.4 | 90.0 | 0.11 |
| CC/C=C\CCCCOC(CCC(=O)OCCCCC(CCCCOC(=O)CCCCCCC/C=C\C/C=C\CCCCC)OC(=O)OCC1CCCN(CC)C1)OCCCC/C=C\CC (centres unmarked) [Example 7-41, 9-((4,4-bis(((Z)-oct-5-en-1-yl)oxy)butanoyl)oxy)-5-((((1-ethylpiperidin-3-yl)methoxy)carbonyl)oxy)nonyl (9Z,12Z)-octadeca-9,12-dienoate] | 1.7 | 84.3 | 80.3 | 0.11 |
